Laboratory results reported in US20240401101A1, “A LIVE CELL ASSAY TO DETERMINE PERMEABILITY OF TEST MOLECULES TO AND/OR WITHIN THE PEPTIDOGLYCAN SCAFFOLD OF BACTERIA CELLS” (priority 2021, published 2024).

Columns and labels:
M. smegmatis mc^2 155 [1] = assay: Example IV: metabolic PG labeling of Msm with DBCO tags followed by azide fluorophore, flow cytometry; assay type: cell-based, Mycobacterium smegmatis; conditions: for cellular fluorescence with azide-modified fluorophore in cells pre-labeled with TetD: 25 μM TetD, fluorophore 1 h at 37° C.
Experimental: General method for bacterial peptidoglycan modification. M. smegmatis strains was inoculated from the glycerol stock to the according media and grown for 24 hours until 0.5-0.6 OD, tetrapeptide probes were added to the media and the cells were grown overnight to achieve stationary phase. The cells were harvested the next day and spun down for 2 min at 3000 g, washed with phosphate buffered saline with tween80 (PBST, PBS with 0.05% tween 80) two times and resuspended in PBST to yield DBCO-modified M. smegmatis cells for further labeling and other experiments.
(§1) DBCOtetra compared with stereo control and single amino acid DBCO. M. smegmatis mc^2 155 was inoculated from stationary phase in 1:100 dilution to a fresh 7H9 media with ADC. 25 μM Dap-DBCO, DBCOtetra or DBCOtera(L) were added to the culture tubes respectively, and the cells were grown for 36-40 hours until stationary phase. The cells were harvested and spun down for 2 min at 3000 g, washed with PBST two times and resuspended in PBST. To a 96-well plate added 100 μL cells pre well with 50 μM FAM-N3 in triplicate. The plate was incubated in 37° C. for 1 h and spun down for 2 min at 3000 g. The supernatant was decanted, and the pellets were washed with PBST for 2 times and fixed with 4% formaldehyde for 15 mins. The samples were then analyzed by Attune™ NxT Acoustic Focusing Cytometer.
as §1, with “Confirm for click chemistry on PG.” for “DBCOtetra compared with stereo control and single amino acid DBCO.”, “μM” for “μM Dap-DBCO,”, “FL-tetra” for “DBCOtera(L)”, “uL” for “μL”, “FAM-N3 or 5-carboxy fluorescein accordingly” for “FAM-N3”
as §1, with “Different concentrations of DBCOtetra.” for “DBCOtetra compared with stereo control and single amino acid DBCO.”, “ADC. 5 μM, 10 μM or” for “ADC.”, “μM” for “μM Dap-DBCO,”, “DBCOtetra” for “DBCOtetra or DBCOtera(L)”, “1h” for “1 h”
Different concentration of FAM-N3 and different time. M. smegmatis mc^2 155 was inoculated from stationary phase in 1:100 dilution to a fresh 7H9 media with ADC. 25 μM DBCOtetra were added to the culture tubes, and the cells were grown for 36-40 hours until stationary phase. The cells were harvested and spun down for 2 min at 3000 g, washed with PBST two times and resuspended in PBST. To a 96-well plate added 100 μL cells pre well with different concentration of FAM-N3 described in the main text, 9 wells each. […] The samples were then analyzed by Attune™ NxT Acoustic Focusing Cytometer. […]

S. aureus (ATCC 25923) = assay: Flow cytometry of S. aureus treated with thiol PG analogs / cystine enantiomers, then Mal-Fl; assay type: cell-based, Staphylococcus aureus; conditions: DTT 5 mM, 25 μM Mal-Fl
Experimental: Flow cytometry analysis of S. aureus treated with thiol analogue panel. LB media containing 1 mM of each respective thiol analogue or dimethyl sulfoxide (DMSO) were prepared. S. aureus ATCC 25923 cells from an overnight culture were added to the medium (1:100 dilution) and allowed to grow overnight at 37° C. with shaking at 250 rpm. The cells were harvested at 4000 rpm and treated with 5 mM dithiothreitol (DTT) at the original culture volume for 5 minutes, to reverse any thiol oxidation that may have occurred. The cells were harvested at 4000 rpm and washed twice at the original culture volume with 1× phosphate-buffered saline (PBS) to remove residual DTT. […] The cells were washed once more to remove formaldehyde and then analyzed using the Attune NxT flow cytometer equipped with a 488 nm laser and 525/40 nm bandpass filter. The data were analyzed using the Attune NXT Software.
Flow cytometry analysis of S. aureus treated with cystine enantiomers. […] The cells were washed once more to remove formaldehyde and then analyzed using the Attune NxT flow cytometer as described above.
The first goal was to identify which cysteine-based label would result in the highest level of thiol handles on the surface of S. aureus. […] Incubation of cells with D-cystine (2) led to a ˜12-fold increase in cellular fluorescence relative to DMSO treated cells. […]

S. aureus (ΔclpX) = assay: DBCO-pegn-Fl library in clpX deletion strain; assay type: cell-based, Staphylococcus aureus; conditions: 1 mM D-LysAz, 25 μM probe, versus WT SA546
Experimental: TSB media containing 1 mM of D-LysAz were prepared. S. aureus SA546, ΔclpX, or ΔclpXΔltaS cells from overnight cultures were added to the medium (1:100 dilution) and allowed to grow overnight at 37° C. with shaking at 250 rpm. The cells were harvested at 4000 rpm and washed three times at the original culture volume with 1×PBS. Each strain was then treated with the DBCO-pegn-Fl library. All library members were used at a 25 μM concentration for 30 minutes at 37° C. and protected from light. The samples were subsequently harvested at 4000 rpm and washed three times with 1×PBS followed by fixation with 2% formaldehyde in 1×PBS for 30 minutes. The cells were washed once more to remove formaldehyde and then analyzed using the Attune NxT flow cytometer as described above.

[2] = test system: WT S. aureus (ATCC 25923); assay type: cell-based, Staphylococcus aureus
Experimental: LB media containing 1 mM of D-LysAz were prepared. S. aureus ATCC 25923 cells supplemented with 0.1 μg/mL tunicamycin, S. aureus ΔtarO cells supplemented with 150 μg/mL spectinomycin, or S. aureus ATCC 25923 cells from overnight cultures were added to the medium (1:100 dilution) and allowed to grow overnight at 37° C. with shaking at 250 rpm. The cells were harvested at 4000 rpm and washed three times at the original culture volume with 1×PBS. Each strain was then treated with the DBCO-pegn-Fl library. All library members were used at a 25 μM concentration for 30 minutes at 37° C. and protected from light. The samples were subsequently harvested at 4000 rpm and washed three times with 1×PBS followed by fixation with 2% formaldehyde in 1×PBS for 30 minutes. The cells were washed once more to remove formaldehyde and then analyzed using the Attune NxT flow cytometer as described above.
LB media containing either 1 mM of D-LysAz, N^ε-azido-L-lysine hydrochloride (L-LysAz), or DMSO were prepared. S. aureus ATCC 25923 cells were added to the LB medium (1:100) and allowed to grow overnight at 37° C. with shaking at 250 rpm. The cells were harvested at 4000 rpm and washed three times at the original culture volume with 1×PBS. […] The cells were washed once more to remove formaldehyde and then analyzed using the Attune NxT flow cytometer as described above.

M. smegmatis mc^2 155 [3] = assay: Ldt inhibition with meropenem (incorporation of TetD); assay type: cell-based, Mycobacterium smegmatis; conditions: 25 μM TetD, then Fl-az
Experimental: Ldt inhibition with meropenem. M. smegmatis mc^2 155 was inoculated from the glycerol stock by 1 to 1000 dilution to the according media and grown for 24 hours until 0.5-0.6 OD. 25 μM DBCOtetra were added to the media, and the cells were aliquoted to a 96-well culture plate with different concentration of meropenem described in the main text, in triplicate respectively. The cells were then grown overnight to achieve stationary phase. The cells were harvested and spun down for 2 min at 3000 g, washed with PBST two times and resuspended in PBST. To a 96-well plate added 100 uL cells pre well with 50 μM FAM-N3 accordingly transferred from the culture plate. The plate was incubated in 37° C. for 1 h and spun down for 2 min at 3000 g. The supernatant was decanted, and the pellets were washed with PBST for 2 times and fixed with 4% formaldehyde for 15 mins. The samples were then analyzed by Attune™ NxT Acoustic Focusing Cytometer.

S. aureus (ΔtarO) = assay: Flow cytometry of D-cystine tagged WTA deletion strain treated with maleimide accessibility probes; assay type: cell-based, Staphylococcus aureus; conditions: 0.1 μg/mL tunicamycin, 25 μM Mal-Fl
Experimental: (§2) Flow cytometry analysis of S. aureus strains treated with Mal-pegn-Fl and Mal-pron-Fl libraries. LB media containing 1 mM of D-cystine were prepared. S. aureus ATCC 25923, S. aureus ATCC 25923 supplemented with 0.1 μg/mL tunicamycin, S. aureus ΔtarO supplemented with 150 μg/mL spectinomycin, USA300, or S. aureus SCO1 cells from overnight cultures were added to the medium (1:100 dilution) and allowed to grow overnight at 37° C. with shaking at 250 rpm. The cells were harvested at 4000 rpm and treated with 5 mM DTT at the original culture volume for 5 minutes, to reverse any thiol oxidation that may have occurred. The cells were harvested at 4000 rpm and washed twice at the original culture volume with 1×PBS to remove residual DTT. Each strain was then treated with both libraries, Mal-pegn-Fl and Mal-pron-Fl, in parallel. All library members were used at a 25 μM concentration for 30 minutes at 37° C. and protected from light. The samples were subsequently harvested at 4000 rpm and washed three times with 1×PBS followed by fixation with 2% formaldehyde in 1×PBS for 30 minutes. The cells were washed once more to remove formaldehyde and then analyzed using the Attune NxT flow cytometer as described above.
(§3) Tunicamycin scan. […] The cells were washed once more to remove formaldehyde and then analyzed using the Attune NxT flow cytometer as described above.

[4] = test system: WT S. aureus (ATCC 25923); assay: Flow cytometry of D-cystine tagged S. aureus treated with Mal-pegn-Fl and Mal-pron-Fl accessibility probes, with or without tunicamycin; assay type: cell-based, Staphylococcus aureus; conditions: 0.001-0.1 μg/mL tunicamycin, 25 μM Mal-Fl
Experimental: as §2, §3

Q: For `N[C@H](CNC(=O)CCC(=O)N1Cc2ccccc2C#Cc2ccccc21)C(=O)O` [D-DapD], which “PG labeling levels (fluorescence) above vehicle treated cells” value (M. smegmatis mc^2 155 [1]; Msm, metabolic label then Fl-az) is on record?
A: The value was roughly 40 fold.

Q: With `N[C@H](CSSC[C@@H](N)C(=O)O)C(=O)O` [D-cystine] as the molecule, how does the “increase in cellular fluorescence relative to DMSO treated cells” value (S. aureus (ATCC 25923); 1 mM PG analog overnight) read?
A: Its value is roughly 12 fold.

Q: How did the “permeation of probe on deletion of clpX alone” value (S. aureus (ΔclpX)) turn out when `O=C1OC2(c3ccc(O)cc3Oc3cc(O)ccc32)c2ccc(NC(=S)NCCC(=O)N3Cc4ccccc4C#Cc4ccccc43)cc21` [DBCO-Fl, fluorescein-DBCO] was run?
A: Its value is “did not lead to an increase”.

Q: Which “increase in cellular fluorescence on co-incubation of cells with tunicamycin” value [2] does the source give for `O=C(CCC(=O)N1Cc2ccccc2C#Cc2ccccc21)NCCOCCOCCOCCOCCOCCOCCOCCOCCOCCNC(=S)Nc1ccc(-c2c3ccc(=O)cc-3oc3cc(O)ccc23)c(C(=O)O)c1` [DBCO-peg9-Fl] here?
A: The value was roughly 17 fold.

Q: Which “cellular fluorescence with azide-modified fluorophore in cells pre-labeled with TetD” value (M. smegmatis mc^2 155 [1]) does the source give for `[N-]=[N+]=Nc1ccc2c(c1)C1(OC2=O)c2ccc(O)cc2Oc2cc(O)ccc21` [Fl-az, 6-azido-fluorescein] here?
A: Its value is “concentration-dependent and time-dependent increase in cellular fluorescence”.

Q: Which “cellular fluorescence after DBCO-Fl” value [2] does the source give for `Cl.[N-]=[N+]=NNCCCC[C@H](N)C(=O)O` [L-LysAz, N^ε-azido-L-lysine hydrochloride] here?
A: The value was “background fluorescence levels”.

Q: With `N[C@@H](CSSC[C@H](N)C(=O)O)C(=O)O` [L-cystine] as the molecule, how does the “cellular fluorescence compared to DMSO treated cells” value (S. aureus (ATCC 25923); 1 mM overnight) read?
A: Its value is “minimal increase”.

Q: For `C[C@@H](O)[C@H]1C(=O)N2C(C(=O)O)=C(S[C@@H]3CN[C@H](C(=O)N(C)C)C3)[C@H](C)[C@H]12` [meropenem], which “cellular fluorescence with increasing levels of meropenem in the presence of TetD” value (M. smegmatis mc^2 155 [3]) is on record?
A: Its value is “concentration dependent decrease in cellular fluorescence”.

Q: Which “cellular fluorescence with azide-modified fluorophore in cells pre-labeled with TetD” value (M. smegmatis mc^2 155 [1]) does the source give for `[N-]=[N+]=Nc1ccc2c(c1)C1(OC2=O)c2ccc(N)cc2Oc2cc(N)ccc21` [rhodamine 110, 6-azido-rhodamine 110] here?
A: Its value is “higher than Fl-az, albeit with a lower fold increase over unlabeled cells”.

Q: What does the source list for tunicamycin?
A: effect of tunicamycin on ΔtarO cells (S. aureus (ΔtarO)): minimal additive effect; effect of tunicamycin treatment on cellular fluorescence [4]: higher overall levels of cellular fluorescence in a concentration dependent manner
